Data taken from paper PMC4061482 (Frontiers in Oncology, 2014).
Like-named read-outs stand apart in the source and are kept apart here.

Assays:
[1] = target: T1, AKR1C3 (Homo sapiens, UniProt P42330); experiment: 11β-PGF2α formation from PGD2 by ELISA in the cell line panel; type: cell-based; settings: 10 μM; all cell lines that expressed AKR1C3; 28 nM PGD2, 24 h
T1 sequence (P42330 1-323): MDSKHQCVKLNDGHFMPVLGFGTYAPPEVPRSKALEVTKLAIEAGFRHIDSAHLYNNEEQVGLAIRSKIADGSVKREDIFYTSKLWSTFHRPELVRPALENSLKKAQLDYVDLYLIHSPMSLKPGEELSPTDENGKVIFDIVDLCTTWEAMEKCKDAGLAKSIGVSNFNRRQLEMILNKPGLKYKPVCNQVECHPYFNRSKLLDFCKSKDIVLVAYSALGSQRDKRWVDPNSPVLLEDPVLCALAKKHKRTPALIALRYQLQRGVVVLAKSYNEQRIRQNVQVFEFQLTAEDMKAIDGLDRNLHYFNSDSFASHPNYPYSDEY
Method: (§1) Cells were seeded into 96-well plates in hormone-deprived media at appropriate seeding densities [10,000–50,000 cells per well for all lines except HCC1500 (100,000 cells per well; 11β-PGF2α ELISA)] to reach approximately 70% confluency at the time of sampling and were left to settle for 24 h at 37°C and 5% CO2. Inhibitors were added to the plates at single or multiple concentrations for 1 h prior to administration of equimolar (28 nM) concentrations of PGD2 (11β-PGF2α ELISA), androstenedione (testosterone ELISA), or estrone (17β-estradiol ELISA). The plates were returned to the incubator for a further 24 h before cell supernatant was removed for analysis of 11β-PGF2α, testosterone, or 17β-estradiol by ELISA as per manufacturer’s instructions (11β-PGF2α and testosterone ELISA, Cayman Chemical Company; 17β-estradiol ELISA, Oxford Biomedical Research), and cells were fixed for sulforhodamine B analysis as described below. Each ELISA plate was read at a wavelength of 405 nm (11β-PGF2α and testosterone) or 650 nM (17β-estradiol) on a SpectraMax M2 microplate reader (Molecular Devices) and quantitated against a standard curve generated in hormone-deprived culture media. […]
The PGD2 11-ketoreductase activity of AKR1C3 was determined by stimulating the cell line panel with PGD2 for 24 h, then detecting 11β-PGF2α levels by ELISA.

[2] = test system: T47D cells; experiment: 17β-estradiol ELISA after estrone stimulation; type: cell-based, human; settings: 10 μM; 28 nM estrone, 24 h
Method: (§2) Cells were seeded into 96-well plates in hormone-deprived media at appropriate seeding densities [10,000–50,000 cells per well for all lines except HCC1500 (100,000 cells per well; 11β-PGF2α ELISA)] to reach approximately 70% confluency at the time of sampling and were left to settle for 24 h at 37°C and 5% CO2. Inhibitors were added to the plates at single or multiple concentrations for 1 h prior to administration of equimolar (28 nM) concentrations of PGD2 (11β-PGF2α ELISA), androstenedione (testosterone ELISA), or estrone (17β-estradiol ELISA). The plates were returned to the incubator for a further 24 h before cell supernatant was removed for analysis of 11β-PGF2α, testosterone, or 17β-estradiol by ELISA as per manufacturer’s instructions (11β-PGF2α and testosterone ELISA, Cayman Chemical Company; 17β-estradiol ELISA, Oxford Biomedical Research), and cells were fixed for sulforhodamine B analysis as described below. Each ELISA plate was read at a wavelength of 405 nm (11β-PGF2α and testosterone) or 650 nM (17β-estradiol) on a SpectraMax M2 microplate reader (Molecular Devices) and quantitated against a standard curve generated in hormone-deprived culture media. Cross-reactivity to PGD2, androstenedione, or estrone was accounted for by adding these to cell-free wells of each ELISA plate.
(§3) 17β-estradiol is predominantly produced from estrone by 17β-HSD1 in breast tissue in post-menopausal women ([44]). Although less catalytically efficient than 17β-HSD1, AKR1C3 can also convert estrone to 17β-estradiol ([10], [12], [14]), and therefore, may play a role in ER-positive breast cancer development. To investigate the activity of AKR1C3 in 17β-estradiol production, ER-positive breast cancer cells and known high and low AKR1C3-expressing cells were stimulated with estrone for 24 h prior to determination of 17β-estradiol levels by ELISA.

[3] = test system: T47D AKR1C3 cells; experiment: 17β-estradiol ELISA after estrone stimulation; type: cell-based, human; settings: 10 μM; 28 nM estrone, 24 h
Method: as §2, §3

[4] = test system: MCF7 cells; experiment: 17β-estradiol ELISA after estrone stimulation; type: cell-based, human; settings: Homo sapiens, MCF7; 10 μM; 28 nM estrone, 24 h; read-out: Inhibition of 17β-estradiol formation
Method: as §2, §3

[5] = test system: LNCaP cells; experiment: Testosterone ELISA after androstenedione stimulation; type: cell-based, human; settings: 10 μM; 28 nM androstenedione, 24 h; P < 0.05
Method: as §1, with “The plates were returned to the incubator for a further 24 h before cell supernatant was removed for analysis of 11β-PGF2α, testosterone, or 17β-estradiol by ELISA as per manufacturer’s instructions (11β-PGF2α and testosterone ELISA, Cayman Chemical Company; 17β-estradiol ELISA, Oxford Biomedical Research), and cells were fixed for sulforhodamine B analysis as described below.” left out
(§4) Since AKR1C3 has been implicated in the development of CRPC because of its ability to produce testosterone intratumorally from circulating androstenedione, we determined testosterone concentrations in the prostate cancer cell lines and known high and low AKR1C3-expressing cells after stimulation with androstenedione for 24 h. […]

[6] = test system: LAPC4 AKR1C3 cells; experiment: as above; type: cell-based; settings: Homo sapiens, 28 nM androstenedione, 24 h, read-out: Inhibition of testosterone levels
Method: as §1, with “The plates were returned to the incubator for a further 24 h before cell supernatant was removed for analysis of 11β-PGF2α, testosterone, or 17β-estradiol by ELISA as per manufacturer’s instructions (11β-PGF2α and testosterone ELISA, Cayman Chemical Company; 17β-estradiol ELISA, Oxford Biomedical Research), and cells were fixed for sulforhodamine B analysis as described below.” left out
as §4

[7] = test system: NCI-H460 cells; experiment: as above; type: cell-based, human; settings: Homo sapiens, NCI-H460; 10 μM; 28 nM androstenedione, 24 h; read-out: Inhibition of testosterone levels
Method: as §2
(§5) Since AKR1C3 has been implicated in the development of CRPC because of its ability to produce testosterone intratumorally from circulating androstenedione, we determined testosterone concentrations in the prostate cancer cell lines and known high and low AKR1C3-expressing cells after stimulation with androstenedione for 24 h.

[8] = test system: HCT116 AKR1C3 cells; experiment: as above; type: cell-based, human; settings: Homo sapiens, HCT-116; for inhibition at 10 µM: read-out: Inhibition of testosterone levels
Method: as §2, §5

[9] = test system: LAPC4 wild-type cells; experiment: PSA concentration after androstenedione stimulation; type: cell-based, human; settings: 10 μM; androstenedione up to 10 nM, 24 h
Method: Cells were seeded at 20,000 cells per well (LAPC4, LAPC4 AKR1C3) or 50,000 cells per well (22RV1) into 96-well plates in hormone-deprived media and left to settle for 24 h at 37°C and 5% CO2. […] The plates were returned to the incubator for 24 h, before the cell supernatant was removed and frozen for PSA analysis. Determination of total PSA concentration was carried out at LabPLUS, Auckland City Hospital, by immunoassay on a Cobas® e601 analyzer according to manufacturer’s instructions (Roche).
Next, PSA expression was determined in the CRPC cell lines that were sensitive to SN33638-mediated inhibition of testosterone (LAPC4 AKR1C3 and 22RV1 with LAPC4 wild-type cells acting as a negative control) as a biomarker of AR activity. […] Androstenedione stimulation promoted PSA production in all three cell lines, with the highest PSA levels observed in LAPC4 AKR1C3 cells.

[10] = test system: NCI-H460 cells; experiment: 17β-estradiol ELISA after estrone stimulation; type: cell-based; settings: Homo sapiens, 28 nM estrone, 24 h, read-out: Inhibition of 17β-estradiol formation
Method: as §2, with “plate. […]” for “plate.”

For `CC1CCCCN1S(=O)(=O)c1ccc(N2CCCC2=O)cc1` (stereo not drawn) [SN33638], the “Reduction of 11β-PGF2α levels” value [1] was at least 80%, the “Effect on 17β-estradiol levels” value [2] was “no effect” and the “Effect on 17β-estradiol levels” value [3] was “no effect”. The inhibition at 10 µM [4] was 16%, the “Effect on testosterone levels” value [5] was “significantly increased” and the inhibition at 10 µM [6] was 96.8%. For the same compound, the inhibition at 10 µM [7] was 54.1%, the inhibition at 10 µM ([8]; 10 μM alone, Figure 4D) was 73.7% and the inhibition at 10 µM ([8]; 10 μM, 28 nM androstenedione, 24 h, Figure 4B) was 74.2%. The EC50 ([8]; HCT116 AKR1C3 cells, 28 nM androstenedione, 24 h, read-out: EC50 of inhibition of testosterone production) was 7.4 ± 1.2 nM, the “Effect on PSA formation” value [9] was “no significant effect” and the inhibition at 10 µM [10] was 39.6%.
